This note sets out measurements from PubChem BioAssay AID330 (DTP/NCI, 2004).

Values joined by “and” are separate entries in the source; they are usually repeats but may differ in a detail not shown here. Equal entries are not always repeated. Inconclusive results and toxic doses are left out.

For this assay, the system named is P388 leukemia ip, CD2F1 mice, survival T/C. Description: NCI In Vivo Anticancer Drug Screen. Data for tumor model P388 Leukemia (intraperitoneal) in CD2F1 (CDF1) mice. As to conditions: endpoint: median survival time, higher = longer survival. In a few lines:
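Mice carrying the transplanted tumor received test compound or vehicle. Survival was recorded in each group, and the value is the treated-group measurement divided by that of the vehicle-treated control group.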

[1] abbreviates: dose: 50.0 mg/kg/injection, schedule: Q01DX005 (ip), vehicle: Klucel (hydroxypropylcellulose) (HPC).
The mark [2] stands for this setting: dose: 100.0 mg/kg/injection, schedule: Q01DX005 (ip), vehicle: Klucel (hydroxypropylcellulose) (HPC).
The mark [3] stands for this setting: dose: 200.0 mg/kg/injection, schedule: Q01DX005 (ip), vehicle: Klucel (hydroxypropylcellulose) (HPC).
[4] abbreviates: dose: 6.25 mg/kg/injection, schedule: Q01DX009 (ip), vehicle: saline with Tween-80.
The mark [5] stands for this setting: dose: 12.5 mg/kg/injection, schedule: Q01DX009 (ip), vehicle: saline with Tween-80.
The mark [6] stands for this setting: dose: 25.0 mg/kg/injection, schedule: Q01DX009 (ip), vehicle: saline with Tween-80.
Where [7] appears, read: dose: 50.0 mg/kg/injection, schedule: Q01DX009 (ip), vehicle: saline with Tween-80.
[8] abbreviates: dose: 100.0 mg/kg/injection, schedule: Q01DX009 (ip), vehicle: saline with Tween-80.
Setting [9] is: dose: 200.0 mg/kg/injection, schedule: Q01DX009 (ip), vehicle: saline with Tween-80.
Where [10] appears, read: dose: 400.0 mg/kg/injection, schedule: Q01DX009 (ip), vehicle: saline with Tween-80.
The mark [11] stands for this setting: dose: 12.5 mg/kg/injection, schedule: Q01DX009 (ip), vehicle: Klucel (hydroxypropylcellulose) (HPC).
The mark [12] stands for this setting: dose: 50.0 mg/kg/injection, schedule: Q01DX009 (ip), vehicle: Klucel (hydroxypropylcellulose) (HPC).

In the case of `CC1CCCCN1C(=O)C(c1ccccc1)(c1ccccc1)c1ccccc1` (stereo unspecified), the T/C is, setting by setting: under setting [1], 99 % of control; under setting [2], 99 % of control; under setting [3], 93 % of control.

On to `CC(C)N[P+](c1ccccc1)(c1ccccc1)c1ccccc1`, for which the T/C (dose: 25.0 mg/kg/injection, schedule: Q04DX003 (ip), vehicle: saline) is 96 % of control.

Regarding `[NH-]c1ncnc2[nH]c(C[N-]C(Cc3cnc[nH]3)C(=O)O)nc12.[Pd+2]` (stereo unspecified), the T/C runs as follows: (dose: 50.0 mg/kg/injection, schedule: Q01DX005 (ip), vehicle: saline) 90 % of control; (dose: 100.0 mg/kg/injection, schedule: Q01DX005 (ip), vehicle: saline) 97 % of control; (dose: 200.0 mg/kg/injection, schedule: Q01DX005 (ip), vehicle: saline) 94 % of control.

In the case of `c1ccc([Se][Se]c2ccccn2)nc1`, the T/C is, setting by setting: (dose: 6.25 mg/kg/injection, schedule: Q01DX005 (ip), vehicle: Klucel (hydroxypropylcellulose) (HPC)) 101 % of control; (dose: 12.5 mg/kg/injection, schedule: Q01DX005 (ip), vehicle: Klucel (hydroxypropylcellulose) (HPC)) 103 % of control; (dose: 25.0 mg/kg/injection, schedule: Q01DX005 (ip), vehicle: Klucel (hydroxypropylcellulose) (HPC)) 101 % of control.

On to `Cc1c(C(=N)C(C#N)C#N)c(=N)oc2c1ccc1ccccc12`, for which the T/C is, setting by setting: under setting [4], 94 % of control and 97 % of control; under setting [5], 86 % of control and 96 % of control; under setting [6], 115 % of control and 87 % of control and 95 % of control; under setting [7], 123 % of control and 94 % of control (2×); under setting [8], 100 % of control and 92 % of control; under setting [9], 116 % of control.

On to `O=C1c2ccccc2C(=O)N1O`, for which the T/C by setting is: (dose: 50.0 mg/kg/injection, schedule: Q01DX009 (ip), vehicle: saline) 93 % of control; (dose: 100.0 mg/kg/injection, schedule: Q01DX009 (ip), vehicle: saline) 100 % of control.

With `CCOC(=O)C1=C(C)NC(C)=C(C(=O)OCC)C1c1ccc(Cl)cc1`, the T/C was 88 % of control under setting [7], 94 % of control under setting [8], 95 % of control under setting [9] and 93 % of control under setting [10].

Consider `C/C=C/C=C1/OC(C)=C(C(=O)OCC)C1=O`, for which the T/C was 107 % of control (dose: 6.25 mg/kg/injection, schedule: Q01DX009 (ip), vehicle: Klucel (hydroxypropylcellulose) (HPC)); 111 % of control under setting [11]; 123 % of control under setting [12].

As for `O=C1C(Cl)=CC(=NS(=O)(=O)c2ccccc2)C=C1Cl`, the T/C reads like this: (dose: 3.13 mg/kg/injection, schedule: Q01DX009 (ip), vehicle: saline with Tween-80) 100 % of control; under setting [4], 105 % of control; (dose: 6.25 mg/kg/injection, schedule: Q04DX003 (ip), vehicle: saline with Tween-80) 95 % of control; under setting [5], 120 % of control.

For `CC(NCCCSc1ccccc1)C(O)c1ccc(O)cc1` (stereo unspecified), the T/C under setting [6] was 94 % of control and the T/C under setting [7] was 100 % of control.

Consider `CC(=O)NCCSC(NC(=O)c1ccccc1)C(=O)O` (stereo unspecified), for which the T/C by setting is: under setting [12], 90 % of control; (dose: 100.0 mg/kg/injection, schedule: Q01DX009 (ip), vehicle: Klucel (hydroxypropylcellulose) (HPC)) 101 % of control; (dose: 200.0 mg/kg/injection, schedule: Q01DX009 (ip), vehicle: Klucel (hydroxypropylcellulose) (HPC)) 98 % of control.

As to `CNC(=O)OCc1c(COC(=O)NC)c(-c2ccc(Br)cc2)n(C)c1C`, the T/C (dose: 20.0 mg/kg/injection, schedule: Q01DX009 (ip), vehicle: distilled water + Tween-80) was 155 % of control.

Take `C=C(COC(C)=O)[C@H](C)C(=O)C1OCOC(C2CC(=O)NC(=O)C2)[C@@H]1OC(C)=O` (stereo partly specified): the T/C is 102 % of control (dose: 0.01 mg/kg/injection, schedule: Q01DX009 (ip), vehicle: distilled water + alcohol); 102 % of control (dose: 0.03 mg/kg/injection, schedule: Q01DX009 (ip), vehicle: distilled water + alcohol); 102 % of control (dose: 0.06 mg/kg/injection, schedule: Q01DX009 (ip), vehicle: distilled water + alcohol); 109 % of control (dose: 0.12 mg/kg/injection, schedule: Q01DX009 (ip), vehicle: distilled water + alcohol).

For `Cc1cc(N)ccc1-n1cnc2c1c(=O)n(C)c(=O)n2C`, the T/C reads like this: (dose: 50.0 mg/kg/injection, schedule: Q01DX005 (ip), vehicle: water) 109 % of control; (dose: 100.0 mg/kg/injection, schedule: Q01DX005 (ip), vehicle: water) 111 % of control.

On to `Cc1nc2sc3c(c2c2nncn12)CCCC3`, for which the T/C was 103 % of control under setting [1], 97 % of control under setting [2] and 97 % of control under setting [3].

For the compound `COc1cc2c(c(OC)c1OC)-c1ccc(SCc3ccccc3)c(=O)cc1[C@@H](NC(C)=O)CC2`, the T/C reads like this: (dose: 1.56 mg/kg/injection, schedule: Q01DX009 (ip), vehicle: Klucel (hydroxypropylcellulose) (HPC)) 105 % of control and 111 % of control and 122 % of control; (dose: 1.56 mg/kg/injection, schedule: Q01DX009 (ip), vehicle: saline with Tween-80) 96 % of control; (dose: 3.12 mg/kg/injection, schedule: Q01DX009 (ip), vehicle: Klucel (hydroxypropylcellulose) (HPC)) 105 % of control and 123 % of control; (dose: 3.12 mg/kg/injection, schedule: Q01DX009 (ip), vehicle: saline with Tween-80) 105 % of control; under setting [4], 105 % of control; under setting [11], 169 % of control and 214 % of control. The T/C (dose: 25.0 mg/kg/injection, schedule: Q01DX009 (ip), vehicle: Klucel (hydroxypropylcellulose) (HPC)) was 92 % of control.

For the compound `c1ccc(-c2nnc3ccccc3n2)cc1`, the T/C runs as follows: under setting [6], 99 % of control; under setting [7], 98 % of control; under setting [8], 98 % of control; under setting [9], 93 % of control.

On to `COC(=O)CCC1=C(C)c2cc3[n-]c(cc4nc(cc5[n-]c(cc1n2)c(CCC(=O)OC)c5C)C=C4C)cc3C.[Ni+2]`, for which the T/C was 90 % of control under setting [8], 90 % of control under setting [9] and 86 % of control under setting [10].

For the compound `CC(C)=C(C)OS(=O)(=O)C(F)(F)F`, the T/C (dose: 50.0 mg/kg/injection, schedule: Q01DX009 (ip), vehicle: olive oil, sesame oil, peanut oil) was 102 % of control; the T/C (dose: 100.0 mg/kg/injection, schedule: Q01DX009 (ip), vehicle: olive oil, sesame oil, peanut oil) was 114 % of control; the T/C (dose: 200.0 mg/kg/injection, schedule: Q01DX009 (ip), vehicle: olive oil, sesame oil, peanut oil) is 96 % of control.
